In patent publication US20170210751A1, “PRMT5 INHIBITORS AND USES THEREOF” (Epizyme, Inc., priority 2014, published 2017):

Assays:
[1] = tested on: Symmetric di-Methyl Arginine in Z-138 cells; assay: Z-138 Methylation Assay (In Cell Western for symmetric di-methyl arginine); format: cell-based; settings: Homo sapiens, 96 hours incubation, symmetric di-methyl arginine normalised to DNA content, read-out: ICW EC50
Excerpt: Z-138 suspension cells were purchased from ATCC (American Type Culture Collection, Manassas, Va.). RPMI/Glutamax medium, penicillin-streptomycin, heat inactivated fetal bovine serum, and D-PBS were purchased from Life Technologies, Grand Island, N.Y., USA. Odyssey blocking buffer, 800CW goat anti-rabbit IgG (H+L) antibody, and Licor Odyssey infrared scanner were purchased from Licor Biosciences, Lincoln, Nebr., USA. Symmetric di-methyl arginine antibody was purchased from EMD Millipore, Billerica, Mass., USA. 16% Paraformaldehyde was purchased from Electron Microscopy Sciences, Hatfield, Pa., USA.
Z-138 suspension cells were maintained in growth medium (RPMI 1640 supplemented with 10% v/v heat inactivated fetal bovine serum and 100 units/mL penicillin-streptomycin) and cultured at 37° C. under 5% CO2.
Cell Treatment, In Cell Western (ICW) for detection of Symmetric di-Methyl Arginine and DNA content.
Z-138 cells were seeded in assay medium at a concentration of 50,000 cells per mL to a 384-well cell culture plate with 50 μL per well. Compound (100 nL) from 384 well source plates was added directly to 384 well cell plate. Plates were incubated at 37° C., 5% CO2 for 96 hours. After four days of incubation, 40 μL of cells from incubated plates were added to poly-D-lysine coated 384 well culture plates (BD Biosciences 356697). Plates were incubated at room temperature for 30 minutes then incubated at 37° C., 5% CO2 for 5 hours. After the incubation, 40 μL per well of 8% paraformaldehyde in PBS (16% paraformaldahyde was diluted to 8% in PBS) was added to each plate and incubated for 30 minutes. Plates were transferred to a Biotek 405 plate washer and washed 5 times with 100 μL per well of wash buffer (IX PBS with 0.1% Triton X-100 (v/v)). Next […] well of Odyssey blocking buffer were added to each plate and incubated 1 hour at room temperature. Blocking buffer was removed and 20 μL per well of primary antibody was added (symmetric di-methyl arginine diluted 1:100 in Odyssey buffer with 0.1% Tween 20 (v/v)) and plates were incubated overnight (16 hours) at 4° C. Plates were washed 5 times with 100 μL per well of wash buffer. Next 20 μL per well of secondary antibody was added (1:200 800CW goat anti-rabbit IgG (H+L) antibody, 1:1000 DRAQ5 (Biostatus limited) in Odyssey buffer with 0.1% Tween 20 (v/v)) and incubated for 1 hour at room temperature. The plates were washed 5 times with 100 μL per well wash buffer then 1 time with 100 μL per well of water. Plates were allowed to dry at room temperature then imaged on the Licor Odyssey machine which measures integrated intensity at 700 nm and 800 nm wavelengths. Both 700 and 800 channels were scanned.
First, the ratio for each well was determined by:
Each plate included fourteen control wells of DMSO only treatment (minimum inhibition) as well as fourteen control wells for maximum inhibition treated with 3 μM of a reference compound (Background wells). The average of the ratio values for each control type was calculated and used to determine the percent inhibition for each test well in the plate. Reference compound was serially diluted three-fold in DMSO for a total of nine test concentrations, beginning at 3 μM. Percent inhibition was determined and IC50 curves were generated using triplicate wells per concentration of compound.

[2] = target: T1, PRMT5/MEP50 (Homo sapiens, UniProt O14744); assay: PRMT5 Biochemical Assay (PRMT5/MEP50 enzyme assay on peptide substrate, 3H-SAM Flashplate); settings: PRMT5/MEP50 4 nM, 3H-SAM 75 nM, peptide 40 nM, 30 min preincubation at 25 degrees Celsius
T1 construct: Flag-PRMT5; made in house; host or cells: Spodoptera frugiperda (SF9) insect cells, baculovirus (pDEST8)
Excerpt: S-adenosylmethionine (SAM), S-adenosylhomocysteine (SAH), bicine, KCl, Tween20, dimethylsulfoxide (DMSO), bovine skin gelatin (BSG), and Tris(2-carboxyethyl)phosphine hydrochloride solution (TCEP) were purchased from Sigma-Aldrich at the highest level of purity possible. ^3H-SAM was purchase from American Radiolabeled Chemicals with a specific activity of 80 Ci/mmol. 384-well streptavidin Flashplates were purchased from PerkinElmer.
Peptide representative of human histone H4 residues 1-15 was synthesized with a C-terminal linker-affinity tag motif and a C-terminal amide cap by 21st Century Biochemicals. The peptide was high high-performance liquid chromatography (HPLC) purified to greater than 95% purity and confirmed by liquid chromatography mass spectrometry (LC-MS). The sequence was Ac-[…][K-Biot]-amide (SEQ ID NO.:3).
Full-length human PRMT5 (NM_006109.3) transcript variant 1 clone was amplified from a fetal brain cDNA library, incorporating flanking 5′ sequence encoding a FLAG tag ([…]) (SEQ ID NO.:4) fused directly to Ala 2 of PRMT5. Full-length human MEP50 (NM_024102) clone was amplified from a human testis cDNA library incorporating a 5′ sequence encoding a 6-histidine tag (MHHHHHH) (SEQ ID NO.:5) fused directly to Arg 2 of MEP50. The amplified genes were sublconed into pENTR/D/TEV (Life Technologies) and subsequently transferred by Gateway™ attL×attR recombination to pDEST8 baculvirus expression vector (Life Technologies).
Recombinant baculovirus and Baculovirus-Infected Insect Cells (BIIC) were generated according to Bac-to-Bac kit instructions (Life Technologies) and Wasilko, 2006, respectively. Protein over-expression was accomplished by infecting exponentially growing Spodoptera frugiperda (SF9) cell culture at 1.2×10^6 cell/ml with a 5000 fold dilution of BIIC stock. Infections were carried out at 27° C. for 72 hours, harvested by centrifugation, and stored at −80° C. for purification.
Flag-PRMT5/6His-MeP50 was eluted with 300 mM Imidazole in the same buffer. The purity of recovered protein was 87%. Reference: Wasilko, D. J. and S. E. Lee: “TIPS: titerless infected-cells preservation and scale-up” Bioprocess J., 5 (2006), pp. 29-32.
General Procedure for PRMT5/MEP50 Enzyme Assays on Peptide Substrates.
The assays were all performed in a buffer consisting of 20 mM Bicine (pH=7.6), 1 mM TCEP, 0.005% BSG, and 0.002% Tween20, prepared on the day of use. Compounds in 100% DMSO (1 ul) were spotted into a polypropylene 384-well V-bottom plates (Greiner) using a Platemate Plus outfitted with a 384-channel head (Thermo Scientific). DMSO (1 ul) was added to Columns 11, 12, 23, 24, rows A-H for the maximum signal control and 1 ul of SAH, a known product and inhibitor of PRMT5/MEP50, was added to columns 11, 12, 23, 24, rows I-P for the minimum signal control. A cocktail (40 ul) containing the PRMT5/MEP50 enzyme and the peptide was added by Multidrop Combi (Thermo-Fisher). The compounds were allowed to incubate with PRMT5/MEP50 for 30 min at 25 degrees Celsius, then a cocktail (10 ul) containing ^3H-SAM was added to initiate the reaction (final volume=51 ul). The final concentrations of the components were as follows: PRMT5/MEP50 was 4 nM, ^3H-SAM was 75 nM, peptide was 40 nM, SAH in the minimum signal control wells was 100 uM, and the DMSO concentration was 1%. The assays were stopped by the addition of non-radioactive SAM (10 ul) to a final concentration of 600 uM, which dilutes the ^3H-SAM to a level where its incorporation into the peptide substrate is no longer detectable. 50 ul of the reaction in the 384-well polypropylene plate was then transferred to a 384-well Flashplate and the biotinylated peptides were allowed to bind to the streptavidin surface for at least 1 hour before being washed three times with 0.1% Tween20 in a Biotek ELx405 plate washer. […]

[3] = tested on: Z-138 cell line; assay: Z-138 Proliferation Assay (Cell Titer Glo); format: cell-based; settings: Homo sapiens, 120 h; Z-138 cells, 5 days incubation, ATP (Cell Titer Glo)
Excerpt: Z-138 Proliferation Assay
Z-138 suspension cells were purchased from ATCC (American Type Culture Collection, Manassas, Va.). RPMI/Glutamax medium, penicillin-streptomycin, heat inactivated fetal bovine serum were purchased from Life Technologies, Grand Island, N.Y., USA. V-bottom polypropylene 384-well plates were purchased from Greiner Bio-One, Monroe, N.C., USA. Cell culture 384-well white opaque plates were purchased from Perkin Elmer, Waltham, Mass., USA. Cell-Titer Glo® was purchased from Promega Corporation, Madison, Wis., USA. SpectraMax M5 plate reader was purchased from Molecular Devices LLC, Sunnyvale, Calif., USA.
Z-138 suspension cells were maintained in growth medium (RPMI 1640 supplemented with 10% v/v heat inactivated fetal bovine serum and cultured at 37° C. under 5% CO2. Under assay conditions, cells were incubated in assay medium (RPMI 1640 supplemented with 10% v/v heat inactivated fetal bovine serum and 100 units/mL penicillin-streptomycin) at 37° C. under 5% CO2.
For the assessment of the effect of compounds on the proliferation of the Z-138 cell line, exponentially growing cells were plated in 384-well white opaque plates at a density of 10,000 cells/ml in a final volume of 50 μl of assay medium. A compound source plate was prepared by performing triplicate nine-point 3-fold serial dilutions in DMSO, beginning at 10 mM (final top concentration of compound in the assay was 20 μM and the DMSO was 0.2%). A 100 nL aliquot from the compound stock plate was added to its respective well in the cell plate. […] After addition of compounds, assay plates were incubated for 5 days at 37° C., 5% CO2, relative humidity >90%.
Cell viability was measured by quantitation of ATP present in the cell cultures, adding 35 μl of Cell Titer Glo® reagent to the cell plates. Luminescence was read in the SpectraMax M5 microplate reader. The concentration of compound inhibiting cell viability by 50% was determined using a 4-parametric fit of the normalized dose response curves.

T1 sequence (O14744 with tags, fused parts or gaps): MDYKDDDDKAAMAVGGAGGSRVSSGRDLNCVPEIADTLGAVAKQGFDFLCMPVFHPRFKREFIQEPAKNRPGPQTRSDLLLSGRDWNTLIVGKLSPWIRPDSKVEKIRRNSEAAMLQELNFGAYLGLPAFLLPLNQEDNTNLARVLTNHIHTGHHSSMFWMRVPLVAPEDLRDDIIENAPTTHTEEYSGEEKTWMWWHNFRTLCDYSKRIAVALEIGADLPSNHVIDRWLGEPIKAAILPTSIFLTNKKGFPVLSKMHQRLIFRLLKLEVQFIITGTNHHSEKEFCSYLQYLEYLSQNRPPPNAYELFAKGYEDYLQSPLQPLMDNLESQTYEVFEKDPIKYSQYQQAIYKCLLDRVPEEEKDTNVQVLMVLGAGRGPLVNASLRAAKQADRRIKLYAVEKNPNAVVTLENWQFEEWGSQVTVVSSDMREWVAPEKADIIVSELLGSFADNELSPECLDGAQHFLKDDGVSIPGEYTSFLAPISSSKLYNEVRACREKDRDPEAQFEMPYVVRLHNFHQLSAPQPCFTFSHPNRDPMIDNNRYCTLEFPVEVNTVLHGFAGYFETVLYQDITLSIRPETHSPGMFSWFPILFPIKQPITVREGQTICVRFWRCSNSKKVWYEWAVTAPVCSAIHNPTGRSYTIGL
T1 sequence (Q9BQA1 with tags, fused parts or gaps partner limits assumed): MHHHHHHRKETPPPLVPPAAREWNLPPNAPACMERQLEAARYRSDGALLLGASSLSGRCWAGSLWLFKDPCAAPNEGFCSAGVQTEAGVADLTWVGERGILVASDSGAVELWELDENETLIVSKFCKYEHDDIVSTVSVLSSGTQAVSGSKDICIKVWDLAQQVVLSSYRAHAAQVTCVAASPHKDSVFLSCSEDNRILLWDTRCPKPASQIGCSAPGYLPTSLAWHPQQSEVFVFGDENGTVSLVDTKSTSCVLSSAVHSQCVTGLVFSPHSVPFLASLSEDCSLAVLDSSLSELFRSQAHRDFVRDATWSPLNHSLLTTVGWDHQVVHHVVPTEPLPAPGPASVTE

IC50 [2] [µM]	Compound	EC50 [1] [µM]	EC50 [3] [µM]
> 10	O=C(NC[C@H](O)CN1CCc2[nH]ncc2C1)c1cc(NC2COC2)ncn1 [Compound 3-19]	> 1	–
> 50	OC(COc1cccc(CNC2CCCC2)c1)CN1CCc2[nH]ncc2C1 (stereo not shown) [Compound 3-14]	–	> 40
1 to 10	CC(=O)N1CC(Nc2cc(C(=O)NC[C@H](O)CN3CCc4nc(C)sc4C3)ncn2)C1 [Compound 1-6, (S)-6-((1-acetylazetidin-3-yl)amino)-N-(2-hydroxy-3-(2-methyl-6,7-dihydrothiazolo[5,4-c]pyridin-5(4H)-yl)propyl)pyrimidine-4-carboxamide]	–	> 5
10 to 50	OC(COc1cccc(CNC2CCCC2)c1)CN1CCc2[nH]nc(-c3ccccc3)c2C1 (stereo not shown) [Compound 3-9, 1-(3-((cyclopentylamino)methyl)phenoxy)-3-(3-phenyl-6,7-dihydro-1H-pyrazolo[4,3-c]pyridin-5(4H)-yl)propan-2-ol]	–	10 to 50
> 10	O=C(NC[C@H](O)CN1CCc2cn[nH]c2C1)c1cc(NC2COC2)ncn1 [Compound 3-39]	–	> 5
